Common to all, as to assay type: physicochemical
A short description of series [1]: Crystallinity by powdery X-ray diffraction (method of Ruland). How it is done:
Crystallinity of powder was measured by the method of Ruland (Acta Crystallographica, Vol. 14, p. 1180, 1961) based on a powdery X-ray diffraction pattern using “[…]”, an X-ray diffractometer (Cu, Kα-ray) commercialized by Rigaku Corp., Tokyo, Japan.

The nature of a further series: Solidification test. The text has this: A sample in the aluminum cup, taken out after keeping three days in the above hygroscopicity test, was macroscopically observed. Solidification was judged from the appearance of the sample whether it was solidified or not by adsorbing moisture.
The nature of the next series: Hygroscopicity test. The conditions noted are these: 25° C., RH 75.2%. How it is done: An open aluminum cup containing a sample was placed in a desiccator, set at a RH of 75.2% (equilibrated with a saturated sodium chloride aqueous solution), kept at 25° C. for three days, and then weighted. Hygroscopicity was expressed with percentage (%) of the increased weight to the initial weight of the sample.

Series [2] is described as follows: Preservation stability of the powder. How it is done: An open aluminum cup containing a sample was placed in a desiccator, set at a RH of 75.2% (equilibrated with a saturated sodium chloride aqueous solution), kept at 25° C. for three days, and then weighted. Hygroscopicity was expressed with percentage (%) of the increased weight to the initial weight of the sample. A sample in the aluminum cup, taken out after keeping three days in the above hygroscopicity test, was macroscopically observed. Solidification was judged from the appearance of the sample whether it was solidified or not by adsorbing moisture.

Take `OCC1OC(OC2C(CO)OC(O)C(O)C2O)C(O)C(O)C1O` (stereo not drawn) [No. 9, hydrous crystalline β-maltose, reference compound]: in series [1], the “Crystallinity (%)” value is 82.6%. In “Solidification test”, the “solidification (in words)” value is “no substantial solidification”. In addition, in the series “Hygroscopicity test”, the “hygroscopicity (in words)” value is reported as “no hygroscopicity”.
In the case of `OC[C@H]1O[C@H](O[C@H]2[C@H](O)[C@@H](O)[C@H](O)O[C@@H]2CO)[C@H](O)[C@@H](O)[C@@H]1O` [No. 10, anhydrous crystalline α-maltose], the “Crystallinity (%)” value in series [1] was 76.3%. The “preservation stability (in words)” value in series [2] is given as “unsatisfactory preservation stability”. Moreover, the “solidification (in words)” value in “Solidification test” is recorded as “heavy solidification”. The “hygroscopicity (in words)” value in “Hygroscopicity test” is “high hygroscopicity”.

Values taken from patent US7183265B2, “Powdery product comprising crystalline β-maltose monohydrate, its preparation, and uses” (priority 2001, dated 2007).
